Test results reported in publication PMC8859858 (Nanoscale, 2019).

Target: AdhD (AdhD-SP) (Pyrococcus furiosus, UniProt Q8TZM9)
Assay: NADH disappearance at […] nm, Michaelis-Menten fit
Assay type: biochemical
Conditions: free enzyme; NADH (A340 ~1.8); 100 mM sodium phosphate pH 6.2; 50 °C

In the case of `CC(=O)C(C)O` (stereo not shown) [acetoin], the KM is reported as “The dependence of the reaction rate on acetoin followed Michaelis-Menten kinetics”.
